# Laboratory results taken from US10829473B2, “Modulators of the cystic fibrosis transmembrane conductance regulator protein and methods of use” (AbbVie Overseas S.Á.R.L., priority 2017, dated 2020).
# Read-outs that look alike come from different tables or passages of the source.
# Target: T1, F508delCFTR (Homo sapiens, UniProt P13569, DEL508-508)
# T1 construct: expressed in transfected cells; host or cells: CFBE41o- human lung derived epithelial cells (CFBE41o-F508delCFTR-HRP), doxycycline-inducible
# Test: Cell Surface Expression-Horse Radish Peroxidase (CSE-HRP) Assay;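 on EC50 (with co-corrector): co-corrector chromenyl benzoic acid corrector at 2 or 3 µM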;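 on Maximum % activity (without co-corrector): % of on-plate positive control chromenyl benzoic acid corrector at 2 or 3 µM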
# Type: cell-based
# Conditions: for Maximum % activity (with co-corrector) / Emax: maximum at any tested concentration; for Emax: read-out: Maximum % activity (without co-corrector)
# Outline: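 Corrector compounds were given as 8-point 3-fold series from 20 or 30 μM, with or without a 2 μM co-corrector, for 18-24 h at 33 °C. Surface HRP was read by luminol luminescence as % of positive control; variable-Hill-slope sigmoidal fitting gave EC50 from triplicate plates.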
# [1] = test compound alone, without co-corrector, read-out: EC50 (without co-corrector)
# [2] = with co-corrector, read-out: EC50 (with co-corrector)
# T1 sequence (P13569 with tags, fused parts or gaps DEL508-508): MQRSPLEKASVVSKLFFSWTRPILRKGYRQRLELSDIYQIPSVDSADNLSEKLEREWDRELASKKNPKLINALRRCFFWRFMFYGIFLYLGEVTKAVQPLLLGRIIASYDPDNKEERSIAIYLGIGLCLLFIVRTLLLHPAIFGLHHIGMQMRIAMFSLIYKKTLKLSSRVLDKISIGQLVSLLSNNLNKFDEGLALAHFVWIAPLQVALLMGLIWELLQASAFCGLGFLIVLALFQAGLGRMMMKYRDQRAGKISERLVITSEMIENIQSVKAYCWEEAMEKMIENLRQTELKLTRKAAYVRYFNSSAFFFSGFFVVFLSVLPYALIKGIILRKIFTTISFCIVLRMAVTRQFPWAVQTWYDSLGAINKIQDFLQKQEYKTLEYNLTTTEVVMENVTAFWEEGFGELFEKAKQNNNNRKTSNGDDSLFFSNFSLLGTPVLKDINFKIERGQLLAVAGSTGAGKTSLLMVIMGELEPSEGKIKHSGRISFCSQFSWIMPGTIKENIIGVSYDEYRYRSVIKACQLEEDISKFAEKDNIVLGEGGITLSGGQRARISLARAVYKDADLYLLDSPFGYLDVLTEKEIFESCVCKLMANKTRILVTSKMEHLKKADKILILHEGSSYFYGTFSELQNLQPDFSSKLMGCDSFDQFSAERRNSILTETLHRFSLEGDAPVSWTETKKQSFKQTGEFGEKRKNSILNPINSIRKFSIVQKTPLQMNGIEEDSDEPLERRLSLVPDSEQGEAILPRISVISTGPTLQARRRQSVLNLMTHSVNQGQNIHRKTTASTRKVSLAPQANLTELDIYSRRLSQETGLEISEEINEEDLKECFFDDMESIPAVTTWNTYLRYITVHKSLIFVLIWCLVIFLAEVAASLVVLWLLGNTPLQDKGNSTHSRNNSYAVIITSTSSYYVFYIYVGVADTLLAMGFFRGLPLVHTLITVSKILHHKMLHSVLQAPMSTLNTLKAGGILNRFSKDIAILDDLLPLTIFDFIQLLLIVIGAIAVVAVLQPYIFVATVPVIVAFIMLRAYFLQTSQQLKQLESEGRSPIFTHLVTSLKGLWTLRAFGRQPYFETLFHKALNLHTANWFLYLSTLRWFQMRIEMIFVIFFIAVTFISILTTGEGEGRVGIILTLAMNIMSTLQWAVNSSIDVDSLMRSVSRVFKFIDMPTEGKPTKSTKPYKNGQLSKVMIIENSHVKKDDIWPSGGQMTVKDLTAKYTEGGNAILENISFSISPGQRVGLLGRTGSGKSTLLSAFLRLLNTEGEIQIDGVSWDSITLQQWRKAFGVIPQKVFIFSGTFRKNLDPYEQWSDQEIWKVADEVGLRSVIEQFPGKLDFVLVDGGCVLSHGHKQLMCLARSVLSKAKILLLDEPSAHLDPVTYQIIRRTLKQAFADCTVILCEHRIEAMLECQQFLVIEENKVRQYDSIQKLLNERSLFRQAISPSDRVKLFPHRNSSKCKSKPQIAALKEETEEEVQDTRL
SMILES,EC50 [1],Maximum % activity (with co-corrector) (with co-corrector),EC50 [2],Emax (without co-corrector)
"O=C(NS(=O)(=O)c1ccccc1)C1(c2ccc(Cl)cc2)CCC1 [Example III-7, N-(benzenesulfonyl)-1-(4-chlorophenyl)cyclobutane-1-carboxamide]",> 10 µM,++ (≥150 and <350),3 to 10 µM,< 50%
"O=C(NS(=O)(=O)c1ccc(Cl)cc1)C1(c2ccc(Cl)cc2Cl)CC1 [Example III-9, N-(4-chlorobenzene-1-sulfonyl)-1-(2,4-dichlorophenyl)cyclopropane-1-carboxamide]",> 10 µM,+ (<150),3 to 10 µM,< 50%
"O=C(NS(=O)(=O)c1ccc(OC(F)(F)F)cc1)C1(c2ccc(Cl)cc2Cl)CC1 [Example III-14, 1-(2,4-dichlorophenyl)-N-[4-(trifluoromethoxy)benzene-1-sulfonyl]cyclopropane-1-carboxamide]",> 10 µM,+ (<150),> 10 µM,< 50%
"O=C(NS(=O)(=O)c1cccc(C(F)(F)F)c1)C1(c2ccc(Cl)cc2Cl)CC1 [Example III-15, 1-(2,4-dichlorophenyl)-N-[3-(trifluoromethyl)benzene-1-sulfonyl]cyclopropane-1-carboxamide]",3 to 10 µM,++ (≥150 and <350),3 to 10 µM,< 50%
"O=C1CCCN1c1ccc(S(=O)(=O)NC(=O)C2(c3ccc(Cl)cc3Cl)CC2)cc1 [Example III-16, 1-(2,4-dichlorophenyl)-N-[4-(2-oxopyrrolidin-1-yl)benzene-1-sulfonyl]cyclopropane-1-carboxamide]",> 10 µM,+ (<150),> 10 µM,< 50%
"O=C(NS(=O)(=O)c1ccc(-c2ccno2)s1)C1(c2ccc(Cl)cc2Cl)CC1 [Example III-17, 1-(2,4-dichlorophenyl)-N-[5-(1,2-oxazol-5-yl)thiophene-2-sulfonyl]cyclopropane-1-carboxamide]",> 10 µM,+ (<150),> 10 µM,< 50%
"O=C(OCc1ccccc1)N1CCC(S(=O)(=O)NC(=O)C2(c3ccc(Cl)cc3Cl)CC2)CC1 [Example III-22, benzyl 4-{[1-(2,4-dichlorophenyl)cyclopropane-1-carbonyl]sulfamoyl}piperidine-1-carboxylate]",> 10 µM,++ (≥150 and <350),3 to 10 µM,< 50%
"O=C(NS(=O)(=O)c1ccccc1Cl)C1(c2cccc(Cl)c2)CC1 [Example III-23, N-(2-chlorobenzene-1-sulfonyl)-1-(3-chlorophenyl)cyclopropane-1-carboxamide]",3 to 10 µM,+++ (≥350),3 to 10 µM,50 to 150%
"COc1ccc(S(=O)(=O)NC(=O)C2(c3ccc(Cl)cc3Cl)CC2)cc1 [Example III-24, 1-(2,4-dichlorophenyl)-N-(4-methoxybenzene-1-sulfonyl)cyclopropane-1-carboxamide]",> 10 µM,++ (≥150 and <350),> 10 µM,< 50%
"COc1ccc(S(=O)(=O)NC(=O)C2(c3ccc(Cl)cc3Cl)CC2)cc1OC [Example III-25, 1-(2,4-dichlorophenyl)-N-(3,4-dimethoxybenzene-1-sulfonyl)cyclopropane-1-carboxamide]",> 10 µM,+ (<150),3 to 10 µM,< 50%
"O=C(NS(=O)(=O)c1cccc(Cl)c1)C1(c2ccc(Cl)cc2Cl)CC1 [Example III-26, N-(3-chlorobenzene-1-sulfonyl)-1-(2,4-dichlorophenyl)cyclopropane-1-carboxamide]",3 to 10 µM,++ (≥150 and <350),3 to 10 µM,< 50%
"O=C(NS(=O)(=O)c1ccccc1)C1(c2ccccc2F)CC1 [Example III-30, N-(benzenesulfonyl)-1-(2-fluorophenyl)cyclopropane-1-carboxamide]",> 10 µM,++ (≥150 and <350),3 to 10 µM,< 50%
"O=C(NS(=O)(=O)Cc1ccccc1)C1(c2ccccc2F)CC1 [Example III-35, 1-(2-fluorophenyl)-N-(phenylmethanesulfonyl)cyclopropane-1-carboxamide]",> 10 µM,++ (≥150 and <350),> 10 µM,< 50%

# Now from value to molecule:
EC50 [1],Maximum % activity (with co-corrector) (with co-corrector),EC50 [2],Emax (without co-corrector),SMILES
> 10 µM,++ (≥150 and <350),3 to 10 µM,< 50%,"O=C(NS(=O)(=O)c1ccc2c(c1)CCC2)C1(c2ccc(Cl)cc2Cl)CC1 [Example III-8, 1-(2,4-dichlorophenyl)-N-(2,3-dihydro-1H-indene-5-sulfonyl)cyclopropane-1-carboxamide]"
> 10 µM,+ (<150),> 10 µM,< 50%,"O=C(NS(=O)(=O)c1ccc(Cl)cc1)C1(c2cccc(Cl)c2)CC1 [Example III-10, N-(4-chlorobenzene-1-sulfonyl)-1-(3-chlorophenyl)cyclopropane-1-carboxamide]"
> 10 µM,+ (<150),> 10 µM,< 50%,"COC(=O)c1csc(S(=O)(=O)NC(=O)C2(c3ccc(Cl)cc3Cl)CC2)c1OC [Example III-11, methyl 5-{[1-(2,4-dichlorophenyl)cyclopropane-1-carbonyl]sulfamoyl}-4-methoxythiophene-3-carboxylate]"
> 10 µM,++ (≥150 and <350),3 to 10 µM,< 50%,"Cc1noc(C)c1S(=O)(=O)NC(=O)C1(c2ccc(Cl)cc2Cl)CC1 [Example III-12, 1-(2,4-dichlorophcnyl)-N-(3,5-dimethyl-1,2-oxazole-4-sulfonyl)cyclopropane-1-carboxamide]"
3 to 10 µM,++ (≥150 and <350),< 3 µM,< 50%,"O=C(NS(=O)(=O)c1ccccc1OC(F)(F)F)C1(c2ccc(Cl)cc2Cl)CC1 [Example III-13, 1-(2,4-dichlorophenyl)-N-[2-(trifluoromethoxy)benzene-1-sulfonyl]cyclopropane-1-carboxamide]"
> 10 µM,+ (<150),> 10 µM,< 50%,"CN(C(=O)C1(c2ccc(Cl)cc2Cl)CC1)S(=O)(=O)c1ccc(Cl)cc1 [Example III-19, N-(4-chlorobenzene-1-sulfonyl)-1-(2,4-dichlorophenyl)-N-methylcyclopropane-1-carboxamide]"
> 10 µM,+ (<150),> 10 µM,< 50%,"CC(C)Oc1ccc(S(=O)(=O)NC(=O)C2(c3ccc(Cl)cc3Cl)CC2)cc1 [Example III-20, 1-(2,4-dichlorophenyl)-N-{4-[(propan-2-yl)oxy]benzene-1-sulfonyl}cyclopropane-1-carboxamide]"
> 10 µM,+ (<150),> 10 µM,< 50%,"O=C(NS(=O)(=O)c1ccc2ccccc2c1)C1(c2ccc(Cl)cc2Cl)CC1 [Example III-27, 1-(2,4-dichlorophenyl)-N-(naphthalene-2-sulfonyl)cyclopropane-1-carboxamide]"
> 10 µM,+ (<150),3 to 10 µM,< 50%,"O=C(NS(=O)(=O)C1CC1)C1(c2ccc(Cl)cc2Cl)CC1 [Example III-28, N-(cyclopropanesulfonyl)-1-(2,4-dichlorophenyl)cyclopropane-1-carboxamide]"
3 to 10 µM,++ (≥150 and <350),3 to 10 µM,< 50%,"Cc1ccc(C2(C(=O)NS(=O)(=O)c3ccccc3)CC2)cc1 [Example III-29, N-(benzenesulfonyl)-1-(4-methylphenyl)cyclopropane-1-carboxamide]"
> 10 µM,++ (≥150 and <350),3 to 10 µM,< 50%,"O=C(NS(=O)(=O)c1ccccc1)C1(c2ccc(F)cc2)CC1 [Example III-31, N-(benzenesulfonyl)-1-(4-fluorophenyl)cyclopropane-1-carboxamide]"
3 to 10 µM,++ (≥150 and <350),3 to 10 µM,< 50%,"O=C(NS(=O)(=O)c1ccccc1)C1(c2ccccc2Cl)CC1 [Example III-32, N-(benzenesulfonyl)-1-(2-chlorophenyl)cyclopropane-1-carboxamide]"
3 to 10 µM,++ (≥150 and <350),3 to 10 µM,< 50%,"O=C(NS(=O)(=O)c1ccccc1)C1(c2ccc(Cl)cc2)CC1 [Example III-33, N-(benzenesulfonyl)-1-(4-chlorophenyl)cyclopropane-1-carboxamide]"
> 10 µM,++ (≥150 and <350),> 10 µM,< 50%,"O=C(NS(=O)(=O)c1ccccc1)C1(c2ccc(Cl)c(Cl)c2)CC1 [Example III-34, N-(benzenesulfonyl)-1-(3,4-dichlorophenyl)cyclopropane-1-carboxamide]"
> 10 µM,+ (<150),> 10 µM,< 50%,"O=C(NS(=O)(=O)C1CCS(=O)(=O)C1)C1(c2ccc(Cl)cc2Cl)CC1 (stereo not shown) [Example III-36, 1-(2,4-dichlorophenyl)-N-(1,1-dioxo-1λ^6-thiolane-3-sulfonyl)cyclopropane-1-carboxamide]"
